Data: publication PMC7377239, “Cardiovascular Effects of Polychlorinated Biphenyls and Their Major Metabolites” (Environmental Health Perspectives, 2020)
Like-named read-outs stand apart in the source and are kept apart here.

Experiments:
HUVECs = assay: High-content imaging cytotoxicity in HUVECs, 24 h; assay type: cell-based, human; settings: Homo sapiens, HUVEC, 24 h, HUVECs; for viability at 0.01 µM / activity at 0.01 µM: concentration 0.01 µM; for viability at 0.01 µM / activity at 0.01 µM / viability at 0.1 µM / activity at 0.1 µM / viability at 1 µM / activity at 1 µM / viability at 10 µM / activity at 10 µM / viability at 100 µM / activity at 100 µM: 0.00 µM = 100.00; for viability at 0.1 µM / activity at 0.1 µM: concentration 0.10 µM; for viability at 1 µM / activity at 1 µM: concentration 1.00 µM; for viability at 10 µM / activity at 10 µM: concentration 10.00 µM; for viability at 100 µM / activity at 100 µM: concentration 100.00 µM; for minimal effective concentration: MAX 100.00
In short: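 HUVECs (passages 1–5) grown to monolayer over 3–5 d, then exposed 24 h at 37°C, 5% CO2; stained with Hoechst 33342, MitoTracker Orange and calcein AM and imaged at 10×. Readouts normalized to 0.5% DMSO vehicle, four-parameter logistic fit; POD at one-SD cutoff, 100μM assigned when no response.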

[1] = system: iCell endothelial cells (human iPSC-derived ECs); assay: High-content imaging cytotoxicity in iCell endothelial cells, 24 h; assay type: cell-based; settings: Homo sapiens, Endothelial cell, iPSC-EC; for viability at 0.1 µM / activity at 0.1 µM: 0.10 µM; for minimal effective concentration: 100.00 = highest concentration tested
In short: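 Human iPSC-derived endothelial cells (passages 1–5) were grown to a fibronectin-coated monolayer, then exposed 24 h at 37 °C with 0.5% DMSO vehicle. Staining was Hoechst 33342, MitoTracker Orange and calcein AM, read by high-content imaging. Point of departure came from 4-parameter logistic fits, with a 1-SD vehicle cutoff and 100 µM as the top concentration.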

[2] = 24 hr, read-out: huvec.cyto.24hr
[3] = 24 hr, read-out: huvec.mito.24hr
[4] = 24 hr, read-out: huvec.mitoint.24hr
[5] = 24 hr, read-out: huvec.nma.24hr
[6] = 24 hrs, read-out: huvec.tc.24hrs
[7] = 0.00 µM = 100.00, read-out: endo.cyto.24hr
[8] = 0.00 µM = 100.00, read-out: endo.mito.24hr
[9] = 0.00 µM = 100.00, read-out: endo.mitoint.24hr
[10] = 0.00 µM = 100.00, read-out: endo.nma.24hr
[11] = 0.00 µM = 100.00, read-out: endo.tc.24hrs

With `Clc1ccc(Cl)c(-c2c(Cl)ccc(Cl)c2Cl)c1` [PCB95] the viability at 0.01 µM (HUVECs; [2]) was 81%, the activity at 0.01 µM (HUVECs; [3]) was 79.4% and the activity at 0.01 µM (HUVECs; [4]) was 106%. The activity at 0.01 µM (HUVECs; [5]) was 97.4%, the viability at 0.1 µM (HUVECs; [2]) was 85.5% and the activity at 0.1 µM (HUVECs; [3]) was 84.2%. It also gave an activity at 0.1 µM (HUVECs; [4]) of 109%, an activity at 0.1 µM (HUVECs; [5]) of 98.6% and a viability at 1 µM (HUVECs; [2]) of 94.8%. For the same compound, the activity at 1 µM (HUVECs; [3]) was 93.4%, the activity at 1 µM (HUVECs; [4]) was 106% and the activity at 1 µM (HUVECs; [5]) was 98.7%. For the same compound, the viability at 10 µM (HUVECs; [2]) was 70.3%, the activity at 10 µM (HUVECs; [3]) was 63.8% and the activity at 10 µM (HUVECs; [4]) was 76.7%. The activity at 10 µM (HUVECs; [5]) was 86.4%, the viability at 100 µM (HUVECs; [2]) was 64.5% and the activity at 100 µM (HUVECs; [3]) was 50.7%. It also gave an activity at 100 µM (HUVECs; [4]) of 18.7%, an activity at 100 µM (HUVECs; [5]) of 56.5% and a minimal effective concentration (HUVECs; 24 hr, read-out: huvec.cyto.24hr POD) of 0.01 µM. It also gave a minimal effective concentration (HUVECs; 24 hr, read-out: huvec.mito.24hr POD) of 0.022 µM, a minimal effective concentration (HUVECs; 24 hr, read-out: huvec.mitoint.24hr POD) of 7.41 µM and a minimal effective concentration (HUVECs; 24 hr, read-out: huvec.nma.24hr POD) of 1.93 µM. For the same compound, the viability at 0.01 µM (HUVECs; [6]) was 81%, the viability at 0.1 µM (HUVECs; [6]) was 85.5% and the viability at 1 µM (HUVECs; [6]) was 94.8%. For the same compound, the viability at 10 µM (HUVECs; [6]) was 70.3%, the viability at 100 µM (HUVECs; [6]) was 64.5% and the minimal effective concentration (HUVECs; 24 hrs, read-out: huvec.tc.24hrs POD) was 0.01 µM. The viability at 0.01 µM [1, 7] was 96.8%, the activity at 0.01 µM [1, 8] was 96.7% and the activity at 0.01 µM [1, 9] was 93.2%. The activity at 0.01 µM [1, 10] was 103%, the viability at 0.01 µM [1, 11] was 96.8% and the viability at 0.1 µM [1, 7] was 102%. For the same compound, the activity at 0.1 µM [1, 8] was 102%, the activity at 0.1 µM [1, 9] was 87.2% and the activity at 0.1 µM [1, 10] was 104%. For the same compound, the viability at 0.1 µM [1, 11] was 102%, the viability at 1 µM [1, 7] was 105% and the activity at 1 µM [1, 8] was 106%. For the same compound, the activity at 1 µM [1, 9] was 84.4%, the activity at 1 µM [1, 10] was 98.6% and the viability at 1 µM [1, 11] was 105%. The viability at 10 µM [1, 7] was 104%, the activity at 10 µM [1, 8] was 104% and the activity at 10 µM [1, 9] was 93.9%. The activity at 10 µM [1, 10] was 100%, the viability at 10 µM [1, 11] was 104% and the viability at 100 µM [1, 7] was 102%. It also gave an activity at 100 µM [1, 8] of 103%, an activity at 100 µM [1, 9] of 93.6% and an activity at 100 µM [1, 10] of 97.4%. The viability at 100 µM [1, 11] was 102%, the minimal effective concentration ([1]; read-out: endo.cyto.24hr POD) was 100 µM and the minimal effective concentration ([1]; read-out: endo.mito.24hr POD) was 100 µM. For the same compound, the minimal effective concentration ([1]; read-out: endo.mitoint.24hr POD) was 100 µM, the minimal effective concentration ([1]; read-out: endo.nma.24hr POD) was 100 µM and the minimal effective concentration ([1]; read-out: endo.tc.24hrs POD) was 100 µM.
